Results from patent US12357608B2, “Methods and compositions utilizing RRx-001 combination therapy for radioprotection” (priority 2018, dated 2025).
“Also recorded” adds a separate entry of the source.

Assays:
[1] = tested on: THP-1 cells; test: Cytokine array of irradiated THP-1 monocytes and macrophages; assay type: cell-based, human
Method: A cytokine array was employed to examine cytokine expression following in vitro irradiation of human monocytic leukemic THP-1 cells. THP-1 cells were differentiated into macrophages with 50 nM Phorbol 12-myristate 13-acetate (PMA) for 24 hours before treatment. Differentiated and non-differentiated cells were treated with […] RRx-001 or 0.05% DMSO (vehicle control) for 16 hours prior to radiation. The cells were irradiated at 5 Gy or sham-irradiated and collected 4-8 hours later for both analysis. For the cytokine analysis, cell media was collected and blotted onto Proteome Profiler Human Cytokine Arrays (R&D Systems, Inc.) according to the manufacturer's protocol.

[2] = tested on: THP-1 cells; test: Western blotting of ARE proteins in THP-1 monocytes and macrophages; assay type: cell-based, human; settings: THP-1 macrophages; 3 mM RRx-001 16 hours
Method: (§1) Expression of ARE proteins was assayed in hMSC, macrophages, and monocytes following in vitro irradiation of the cells, which were pretreated with RRx-001 or vehicle. Protein expression was assayed by Western blotting and protein quantification.
(§2) hMSC were treated for 16 hours with […] RRx-001 or the vehicle control (0.05% DMSO), irradiated at 10 Gy or sham-irradiated and the protein collected 8 or 24 hours post-sham or irradiation. Human monocytic leukemic THP-1 and U937 cells were differentiated into macrophages with 50 nM Phorbol 12-myristate 13-acetate (PMA) for 24 hours before treatment. Differentiated and non-differentiated cells were treated with […] RRx-001 or 0.05% DMSO (vehicle control) for 16 hours prior to radiation. The cells were irradiated at 5 Gy or sham-irradiated and collected 4-8 hours later for both analysis. For each experiment, duplicates of each sample were run.

[3] = tested on: male Syrian Golden Hamsters; test: Oral mucositis induced by acute radiation in hamsters; assay type: in vivo
Method: Fifty-six (56) male Syrian Golden Hamsters were used in the study. Mucositis was induced by administering an acute radiation dose of 40 Gy directed to the left buccal cheek pouch on Day 0 at a rate of 2-2.5 Gy/min. Mucositis was evaluated clinically starting on Day 6 and continuing on alternate days until Day 28. Hamsters reaching a mucositis severity score of 4 or higher received buprenorphine (0.5 mg/kg) SC twice a day for 48 hours or until score dropped below 4.
Dosing was scheduled as follows: for animals in Groups 1-4, animals were dosed with RRx-001 (1, 3, or 10 mg/kg) or vehicle (1:2 DMA:PEG400 vol:vol ratio) once a day (QD) on Days −4, −1, 1, 4, 7, 11, 14, 18, 21, and 25 via intraperitoneal (IP) administration; animals in Groups 5-7 were dosed QD with RRx-001 (1, 3, or 10 mg/kg) on Days −4, −1, 1, 8, 15, and 22.
The significance of differences observed between the control and treatment group was evaluated by comparing the days with mucositis scores≥3 and <3 between groups using chi-square analysis. […] The percentage of animal days with a score of ≥3 in the Vehicle Group was 57.29%. […] There were numerous days where animals dosed with RRx-001 had percent ulceration days that were lower (which can be interpreted as ameliorative of disease severity) in comparison to vehicle-dosed animals.
An analysis of the severity of mucositis was performed using the Mann-Whitney rank sum analysis to compare the visual mucositis scores for the treatment group to the Vehicle control group on each day of evaluation. In this analysis, 2 days of significant reduction in the mucositis score are generally required before it is regarded as meaningful.
This evaluation was intended to clarify which days of treatment had its maximal impact on the course of ulcerative mucositis. There were numerous days where animals dosed with RRx-001 had percent ulceration days that were lower (which can be interpreted as ameliorative of disease severity) in comparison to vehicle-dosed animals.

[4] = tested on: CD2F1 male mice; test: Complete blood count with differential and reticulocytes after sublethal TBI or sham irradiation; assay type: in vivo; settings: 7 Gy TBI
Method: To determine the pathophysiological effects of RRx-001 on hematopoietic protection in mice, CD2F1 male mice were treated with 10 mg/kg RRx-001 or the vehicle control 24 hours prior to a sublethal dose of TBI (7 Gy at 0.6 Gy/min using High-level Cobalt-60) or sham irradiation (day 0) according to the table below.
CD2F1 male mice (n=3/group) were divided into 4 experimental groups: 1) irradiation+vehicle, 2) irradiation+RRx-001, 3) sham-irradiation+vehicle and 4) sham-irradiation+RRx-001. Either 10 mg/kg RRx-001 or the vehicle control were IP injected 24 hours prior to either irradiation or sham-irradiation (day 0). On days 2, 7, 14, 21, and 28 post-irradiation (day 0) mice were humanely euthanized. Blood, bone marrow, and sternebrae were then collected. This experiment was performed in duplicate for a total of n=6 mice/group/time point.
Post-irradiation whole blood was obtained by terminal cardiocentesis. Blood samples were immediately transferred into EDTA tubes (Sarstedt Inc., Newton, NC) and gently rotated until the time of analysis. The tubes were analyzed for a complete blood count with differential and reticulocytes using the ADVIA 2120 (Siemens Medical Solutions Diagnostics, Dublin, Ireland), and Microsoft software version 5.9 (Microsoft Corp., Redmond, WA) to generate the data.
Blood parameters were compared between treatment groups using an analysis of variance (ANOVA). The Wilcoxon test was also used for sensitivity and to potentially address data departures from normality. A longitudinal mixed model repeated measures was also implemented to provide a more complete data analysis of the sham-irradiated treatment groups' difference in overall time profile mean based on the blood parameters. Bone marrow data (megakaryocytes and grade) statistical analysis was carried out using a parametric test consisting of a general linear model analysis of variance (ANOVA with factors consisting of treatment group and pathologist) and the Kruskal-Wallis nonparametric test. The statistical data analysis was carried out using R software (Version 3.4.3, 2016) and the graphs made using GraphPad Prism version 7.03 (GraphPad Software, La Jolla, CA).

[5] = tested on: U937 cells; test: Western blotting of ARE proteins in U937 monocytes and macrophages; assay type: cell-based, human; settings: 3 mM RRx-001 16 hours
Method: as §1, §2

[6] = days 2 and 21 post-irradiation, vs vehicle control

SMILES: O=C(CBr)N1CC([N+](=O)[O-])([N+](=O)[O-])C1 [RRx-001, 2-bromo-1-(3,3-dinitroazetidin-1-yl)ethan-1-one]
- cytokines involved in inflammation ([1]; THP-1 macrophage fraction, sham and 5 Gy irradiated, 3 mM RRx-001 16 hours): reduction in cytokines involved in inflammation
- pro-inflammatory chemokine IL-8 ([1]; THP-1 macrophages): reduction
- CCL5/RANTES expression ([1]; THP-1 monocytes, 3 mM RRx-001 16 hours): induction; also recorded: upregulation
- HO-1 expression [2]: no significant increase in HO-1
- daily mucositis scores compared to the Vehicle control group ([3]; 1 mg/kg IP): multiple days of significant improvement in mucositis scores
- daily mucositis scores compared to the Vehicle control group ([3]; 10 mg/kg IP): multiple days of significant improvement in mucositis scores
- mean daily mucositis scores ([3]; 10 mg/kg IP, Group 2, dosed Days −4, −1, 1, 40 Gy): modest but significant enhancement of disease healing
- body weight by study termination ([3]; 10 mg/kg IP, Groups 2 and 5, after cessation of dosing): rebounded back to be in line with other groups
- tolerability of the highest dose ([3]; 10 mg/kg IP, Groups 2 and 5, dosing discontinued after Day 1): adverse side effects
- body weight ([3]; 10 mg/kg IP, Groups 2 and 5, during study): lower weights than all other groups
- percent ulceration ([3]; 10 mg/kg, Groups 2 and 5, only dosed on Days −4, −1, and 1): best response in decreasing percent ulceration
- percent days of ulceration, twice weekly dosing vs one time per week ([3]; 3 and 1 mg/kg, 1 mg/kg, Group 4 vs Group 7): more beneficial effects on percent days of ulceration
- percentage of days with a mucositis score of ≥3 in comparison to the Vehicle Group ([3]; Group 2, 10 mg/kg on Days −4, −1, 1, p<0.01): statistically lower
- body weight ([3]; all groups except Groups 2 and 5 (1 and 3 mg/kg IP)): steadily gained weight
- mean daily mucositis scores ([3]; all other treatment groups (Groups 3-7)): tracked fairly close to each other, and with Vehicle dosed controls
- percent ulceration days in comparison to vehicle-dosed animals ([3]; numerous days): lower
- % RETIC ([4]; day 14, vs control mice): significantly increased
- ALC counts ([4]; day 14, vs controls): significantly increased
- WBC counts ([4]; day 14, vs controls): significantly increased
- % HCT ([4]; day 14, vs irradiated control): significantly increased
- % RETIC ([4]; day 28, vs vehicle controls): significantly increased
- absolute lymphocyte count (ALC) [4, 6]: No significant difference
- absolute neutrophil count (ANC) [4, 6]: No significant difference
- percent hematocrit (% HCT) [4, 6]: No significant difference
- percent reticulocytes (% RETIC) [4, 6]: No significant difference
- platelets (PLT) [4, 6]: No significant difference
- white blood cells (WBC) [4, 6]: No significant difference
- ANC ([4]; days 7 and 14, vs control): significantly increased
- PLT ([4]; days 7 and 14, vs control): significantly increased
- red blood cells and hemoglobin ([4]; irradiated RRx-001 vs irradiated vehicle group): not significantly different
- white blood cells and red blood cell production ([4]; irradiated mice vs irradiated vehicle control): significant increase
- NQO-1 expression ([5]; U937 macrophages): no change
- SOD-1 expression ([5]; U937 macrophages): no change
- HO-1 production ([5]; U937 macrophages, sham and irradiated groups): increased HO-1 production
- HO-1 expression ([5]; U937 monocyte fraction): significant increase in HO-1
